Experimental findings from PubChem BioAssay (NCI) are described below.

Some test systems named below: SF-268 CNS; SF-295 CNS; OVCAR-5 ovarian; LOX IMVI melanoma; 786-0 renal; K-562 leukemia; NCI/ADR-RES ovarian; KM12 colon; LXFL 529 NSCLC; HT29 colon; HCT-116 colon; OVCAR-8 ovarian; MALME-3M melanoma; HCC-2998 colon; SW-620 colon; RPMI-8226 leukemia; UACC-257 melanoma; SF-539 CNS; HOP-92 NSCLC; MDA-N.
What all share (experiment): NCI tumour cell line growth inhibition, 48 h

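96-well plates; 48 h exposure; 5 concentrations. Endpoints by linear interpolation between flanking doses. Not reached: highest tested concentration assigned. TGI: total growth inhibition.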

In the case of `COc1c(OC(C)=O)c(OC(C)=O)cc2c1-c1ccc(SC)c(=O)cc1C(NC(C)=O)CC2` (stereo not given), the TGI with SF-268 CNS is over 100 µM; with SF-295 CNS, 21.3 µM; in the test on OVCAR-5 ovarian, over 100 µM; with LOX IMVI melanoma, over 100 µM; with 786-0 renal, over 100 µM; in the test with K-562 leukemia, over 43.8 µM. Further, the TGI with NCI/ADR-RES ovarian, in the test with KM12 colon, with LXFL 529 NSCLC, with HT29 colon, in the test with HCT-116 colon and in the test with OVCAR-8 ovarian was over 100 µM each time. For the same molecule, the TGI in the test on MALME-3M melanoma was over 100 µM; with HCC-2998 colon it was over 27.6 µM; in the test on SW-620 colon, over 100 µM; in the test on RPMI-8226 leukemia, over 100 µM; in the test with UACC-257 melanoma, over 100 µM; in the test with SF-539 CNS, 0.846 µM. The TGI in the test on HOP-92 NSCLC was over 100 µM; in the test on MDA-N it was 0.576 µM.
